IC50, EC (100% TGF-beta3 activity) and EC50 data for 18 compounds are collected here from patent publication US9493487B2, “3-(1H-imidazo[4,5-C]pyridin-2-YL)-1H-pyrazolo[3,4-B]pyridine and therapeutic uses thereof” (Samumed, LLC, priority 2014, dated 2016).

Common to all, as to assay type: cell-based
The test system of test [1] is Wnt activity (Sp5-Luc reporter, SW480 colon carcinoma cells). Put plainly: Sp5-Luc Wnt reporter gene assay in SW480 colon carcinoma cells. The note with it: Homo sapiens; SW480 cells stably expressing Sp5-Luc reporter; 42 h incubation; BrightGlo luminescence normalized to DMSO. An outline of the steps:
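IC50 values come from variable-slope four-parameter fits of luciferase signal normalized to DMSO wells. Stable Sp5-Luc reporter SW480 colon carcinoma cells were exposed to compounds in a 3-fold dilution series (source plates from 10 mM stock) for forty-two hours at 37 °C.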
On the technique in general: Reporter assays use an easily measured gene product as a stand-in for the process of interest.

The test system of test [2] is primary human mesenchymal stem cells (hMSCs). The experiment in a line: Chondrogenesis induction screen in primary human mesenchymal stem cells (nodule count, Rhodamine B/Nile Red). The note with it: 144 h, 6 days, concentration required to induce chondrogenesis equivalent to TGF-β3 (10 ng/mL), read-out: Conc (nM) of 100% TGF-β3 activity. As for the experimental part: The above synthesized compounds were screened using primary human mesenchymal stem cells (hMSCs) to determine their ability to induce chondrogenesis (process by which cartilage is developed).
Primary human mesenchymal stem cells (hMSCs) were purchased from Lonza (Walkersville, Md.) and expanded in Mesenchymal Stem Cell Growth Media (Lonza). Cells between passage 3 and 6 were used for the experiments.
Each compound was dissolved in DMSO as a 10 mM stock and used to prepare compound source plates. Serial dilution (1:3, 6-point dose-response curves from 2700 nM to 10 nM) and compound transfer was performed using the ECHO 550 (Labcyte, Sunnyvale, Calif.) into 96-well clear bottom assay plates (Greiner Bio-One) with appropriate DMSO backfill for a final DMSO concentration of 0.03%. hMSCs were plated at 20,000 cells/well in 250 μL/well Incomplete Chondrogenic Induction Medium (Lonza; DMEM, dexamethasone, ascorbate, insulin-transferrin-selenium [ITS supplement], gentamycin-amphotericin [GA-1000], sodium pyruvate, proline and L-glutamine). TGF-β3 (10 ng/mL) was used as a positive control for differentiation while negative control wells were treated with 75 nL DMSO for normalization and calculating EC50 values. Cells were incubated at 37° C. and 5% CO2 for 6 days. To image chondrogenic nodules, the cells were fixed using 4% formaldehyde (Electron Microscopy Sciences), and stained with 2 μg/mL Rhodamine B (Sigma-Aldrich) and 20 μM Nile Red (Sigma-Aldrich) [Johnson K., et. al, A Stem Cell-Based Approach to Cartilage Repair, Science, (2012), 336(6082), 717-721]. The nodules imaged (4 images per well at 4× magnification) by excitation at 531 nm and emission at 625 nm and quantified using the CellInsight CX5 (Thermo Scientific). Number of nodules in each well was normalized to the average of 3 DMSO treated wells on the same plate using Excel (Microsoft Inc.). The normalized averages (fold change over DMSO) of 3 replicate wells for each compound concentration were calculated. Due to solubility limitations of some of the compounds, curve fitting was incomplete leading to inaccurate EC50 determinations.
Using TGF-β3 as a positive control, the concentration of test compounds required to induce equivalent levels of chondrogenesis is reported. In addition, the maximum activity of each compound and the respective dose that each compound reached maximum chondrogenesis activity is reported.

The test system of test [3] is primary human fibroblasts derived from IPF patients (LL29 cells). Put plainly: Inhibition of TGF-β1-induced fibrosis (αSMA staining) in primary human fibroblasts from IPF patients. The note with it: Fibroblast, 96 h, TGF-β1 20 ng/mL, 4 days, 11-point dose-response 10 μM to 1.87 nM. An outline of the steps:
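LL29 cells in F12 with 1% FBS were exposed to compound (11-point, 10 μM–1.87 nM, 0.1% DMSO) plus TGF-β1 20 ng/mL for 4 days at 37° C. Imaged αSMA-positive fraction of live (SYTOX-negative) cells, normalized to TGF-β1/DMSO wells; EC50 by non-linear regression of triplicates.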

For orientation: IC50 means the concentration needed to halve the response being measured. Read a low IC50 as inhibition by little substance. In general, EC50 refers to the concentration needed to bring the measured effect to its halfway point. The compound `CCC(=O)Nc1cncc(-c2cnc3[nH]nc(-c4nc5c(-c6cccc(F)c6)nccc5[nH]4)c3c2)c1` [Compound 1, N-(5-(3-(4-(3-Fluorophenyl)-1H-imidazo[4,5-c]pyridin-2-yl)-1H-pyrazolo[3,4-b]pyridin-5-yl)pyridin-3-yl)propionamide] came in with a concentration for half-maximal inhibition (IC50) in test [1] of 5.8 nM. In test [2], the EC (100% TGF-beta3 activity) came out at 117 nM. Besides, it took 62 nM to reach a half-maximal effect in test [3] (EC50).

Compound `O=C(Nc1cncc(-c2cnc3[nH]nc(-c4nc5c(-c6ccc(F)cc6)nccc5[nH]4)c3c2)c1)C1CCC1` [Compound 46, N-(5-(3-(4-(4-Fluorophenyl)-1H-imidazo[4,5-c]pyridin-2-yl)-1H-pyrazolo[3,4-b]pyridin-5-yl)pyridin-3-yl)cyclobutanecarboxamide] displayed an IC50 in test [1] of 5 nM. The EC (100% TGF-beta3 activity) in test [2] is 80.6 nM. Besides, in test [3], a half-maximal response (EC50) required 253 nM.

In turn, `Nc1cncc(-c2cnc3[nH]nc(-c4nc5c(-c6ccccc6F)nccc5[nH]4)c3c2)c1` [Compound 55, 5-(3-(4-(2-Fluorophenyl)-1H-imidazo[4,5-c]pyridin-2-yl)-1H-pyrazolo[3,4-b]pyridin-5-yl)pyridin-3-amine] displayed a concentration for half-maximal inhibition (IC50) in test [1] of 5.9 nM. For the same compound, the EC (100% TGF-beta3 activity) in test [2] was found to be 32.2 nM. For the same compound, the midpoint of the response in test [3], the EC50, lay at 283 nM.

As to `Cc1cn(-c2nccc3[nH]c(-c4n[nH]c5ncc(-c6cncc(NC(=O)CC(C)C)c6)cc45)nc23)cn1` [Compound 184, 3-Methyl-N-(5-(3-(4-(4-methyl-1H-imidazol-1-yl)-1H-imidazo[4,5-c]pyridin-2-yl)-1H-pyrazolo[3,4-b]pyridin-5-yl)pyridin-3-yl)butanamide], in test [1], the IC50 turned out to be 4.8 nM. Besides, in test [2], the EC (100% TGF-beta3 activity) was found to be 5.4 nM.

Consider `CCCC(=O)Nc1cncc(-c2cnc3[nH]nc(-c4nc5c(-c6ccsc6)nccc5[nH]4)c3c2)c1` [Compound 251, N-(5-(3-(4-(Thiophen-3-yl)-1H-imidazo[4,5-c]pyridin-2-yl)-1H-pyrazolo[3,4-b]pyridin-5-yl)pyridin-3-yl)butyramide], for which the IC50 in test [1] stood at 9.9 nM. Also, the EC (100% TGF-beta3 activity) in test [2] worked out at 52.8 nM. The concentration giving a half-maximal response (EC50) in test [3] stood at 73 nM.

In turn, `CC(C)Nc1cncc(-c2cnc3[nH]nc(-c4nc5c(-c6ccoc6)nccc5[nH]4)c3c2)c1` [Compound 272, 5-(3-(4-(Furan-3-yl)-1H-imidazo[4,5-c]pyridin-2-yl)-1H-pyrazolo[3,4-b]pyridin-5-yl)-N-isopropylpyridin-3-amine] yielded a concentration for half-maximal inhibition (IC50) in test [1] of 13 nM. For the same compound, the EC (100% TGF-beta3 activity) in test [2] turned out to be 72 nM. The EC50 in test [3] came out at 9 nM.

`O=C(Nc1cncc(-c2cnc3[nH]nc(-c4nc5c(-c6cccs6)nccc5[nH]4)c3c2)c1)C1CC1` [Compound 305, N-(5-(3-(4-(Thiophen-2-yl)-1H-imidazo[4,5-c]pyridin-2-yl)-1H-pyrazolo[3,4-b]pyridin-5-yl)pyridin-3-yl)cyclopropanecarboxamide] registered a half-inhibitory concentration (IC50) in test [1] of 9 nM. Besides, the EC (100% TGF-beta3 activity) in test [2] was found to be 54.9 nM.

In test [1], `Cc1ccc(-c2nccc3[nH]c(-c4n[nH]c5ncc(-c6cncc(N)c6)cc45)nc23)s1` [Compound 341, 5-(3-(4-(5-Methylthiophen-2-yl)-1H-imidazo[4,5-c]pyridin-2-yl)-1H-pyrazolo[3,4-b]pyridin-5-yl)pyridin-3-amine] gave an IC50 of 0.9 nM. In addition, the EC (100% TGF-beta3 activity) in test [2] came out at 58.2 nM. In test [3], this compound came in with an EC50 of 9 nM.

Compound `CC(=O)c1ccc(-c2nccc3[nH]c(-c4n[nH]c5ncc(-c6cccnc6)cc45)nc23)s1` [Compound 368, 1-(5-(2-(5-(Pyridin-3-yl)-1H-pyrazolo[3,4-b]pyridin-3-yl)-1H-imidazo[4,5-c]pyridin-4-yl)thiophen-2-yl)ethan-1-one] came in with an IC50 in test [1] of 10.4 nM. The EC (100% TGF-beta3 activity) in test [2] was determined as 84.6 nM. Moreover, a half-maximal response in test [3] (EC50) required 241 nM.

In test [1], `Cc1ccncc1-c1cnc2[nH]nc(-c3nc4c(-c5cc(F)cc(CNS(C)(=O)=O)c5)nccc4[nH]3)c2c1` [Compound 395, N-(3-Fluoro-5-(2-(5-(4-methylpyridin-3-yl)-1H-pyrazolo[3,4-b]pyridin-3-yl)-1H-imidazo[4,5-c]pyridin-4-yl)benzyl)methanesulfonamide] returned an IC50 of 8 nM. Further, the EC (100% TGF-beta3 activity) in test [2] is 92.8 nM. The same compound had a 50% effective concentration (EC50) in test [3] of 9 nM.

Take `CC(C)Nc1cncc(-c2cnc3[nH]nc(-c4nc5c(-c6cc(F)cc(NCCN(C)C)c6)nccc5[nH]4)c3c2)c1` [Compound 428, N^1-(3-Fluoro-5-(2-(5-(5-(isopropylamino)pyridin-3-yl)-1H-pyrazolo[3,4-b]pyridin-3-yl)-1H-imidazo[4,5-c]pyridin-4-yl)phenyl)-N^2,N^2-dimethylethane-1,2-diamine]: in test [1], the IC50 turned out to be 15 nM. The EC (100% TGF-beta3 activity) in test [2] was 82.9 nM. For the same compound, the response in test [3] was half-maximal at 20 nM (EC50).

In test [1], `Cn1cc(-c2cnc3[nH]nc(-c4nc5c(-c6cccc(F)c6)nccc5[nH]4)c3c2)cn1` [Compound 888, 3-(4-(3-Fluorophenyl)-1H-imidazo[4,5-c]pyridin-2-yl)-5-(1-methyl-1H-pyrazol-4-yl)-1H-pyrazolo[3,4-b]pyridine] yielded a 50% inhibitory concentration (IC50) of 12 nM. Besides, in test [2], the EC (100% TGF-beta3 activity) turned out to be 74.9 nM. Also, the 50% effective concentration (EC50) in test [3] was determined as 14 nM.

Compound `Cc1ncc(-c2cnc3[nH]nc(-c4nc5c(-c6cccc(F)c6)nccc5[nH]4)c3c2)n1C` [Compound 889, 5-(1,2-Dimethyl-1H-imidazol-5-yl)-3-(4-(3-fluorophenyl)-1H-imidazo[4,5-c]pyridin-2-yl)-1H-pyrazolo[3,4-b]pyridine] had an IC50 in test [1] of 12 nM. In addition, in test [2], the EC (100% TGF-beta3 activity) came to 152 nM. Moreover, the response in test [3] was half-maximal at 9 nM (EC50).

Consider `CN(C)CCOc1cncc(-c2cnc3[nH]nc(-c4nc5c(-c6cccc(F)c6)nccc5[nH]4)c3c2)c1` [Compound 895, 2-((5-(3-(4-(3-Fluorophenyl)-1H-imidazo[4,5-c]pyridin-2-yl)-1H-pyrazolo[3,4-b]pyridin-5-yl)pyridin-3-yl)oxy)-N,N-dimethylethan-1-amine], for which, in test [1], 343 nM corresponded to half-maximal inhibition (IC50). Further, the EC50 in test [3] is at least 9990 nM.

In test [1], `COc1cncc(-c2cnc3[nH]nc(-c4nc5c(-c6cccc(F)c6)nccc5[nH]4)c3c2)c1` [Compound 896, 3-(4-(3-Fluorophenyl)-1H-imidazo[4,5-c]pyridin-2-yl)-5-(5-methoxypyridin-3-yl)-1H-pyrazolo[3,4-b]pyridine] displayed an IC50 of 37 nM. In addition, the 50% effective concentration (EC50) in test [3] worked out at 108 nM.

In test [1], `Fc1cccc(-c2nccc3[nH]c(-c4n[nH]c5ncc(-c6ccncc6)cc45)nc23)c1` [Compound 900, 3-(4-(3-Fluorophenyl)-1H-imidazo[4,5-c]pyridin-2-yl)-5-(pyridin-4-yl)-1H-pyrazolo[3,4-b]pyridine] showed a half-maximal inhibitory concentration (IC50) above 10000 nM. In addition, the response in test [3] was half-maximal at 9 nM (EC50).

In test [1], `Fc1cccc(-c2nccc3[nH]c(-c4n[nH]c5ncc(-c6cnccn6)cc45)nc23)c1` [Compound 902, 3-(4-(3-Fluorophenyl)-1H-imidazo[4,5-c]pyridin-2-yl)-5-(pyrazin-2-yl)-1H-pyrazolo[3,4-b]pyridine] displayed an IC50 of 705 nM. In test [3], this compound gave an EC50 of 9 nM.

For the compound `CN(C)CC(=O)Nc1cncc(-c2cnc3[nH]nc(-c4nc5c(-c6cccc(F)c6)nccc5[nH]4)c3c2)c1` [Compound 1367, 2-(Dimethylamino)-N-(5-(3-(4-(3-fluorophenyl)-1H-imidazo[4,5-c]pyridin-2-yl)-1H-pyrazolo[3,4-b]pyridin-5-yl)pyridin-3-yl)acetamide], 183 nM corresponded to half-maximal inhibition in test [1] (IC50). The midpoint of the response in test [3], the EC50, lay at 186 nM.
